Experimental findings from patent publication EP4311545A1, “COMPOUNDS USEFUL FOR THE POST-STING TREATMENT FROM A CNIDARIAN ORGANISM” (Isdin, S. A., priority 2022, dated 2024) are described below.

Structures are written as SMILES.

In the experiment the test system is P. noctiluca. The experiment is described as follows: Tentacle Skin Blood Agarose Assay (TSBAA): venom load after natural stimulation of nematocyst discharge. It is filed as cell-based. The settings on record: for discharge of nematocysts: summary of the results of Examples 1 and 2. The method, then: Example 2: Natural stimulation of nematocyst discharge. Tentacle Skin Blood Agarose Assay (TSBAA).
Briefly, an agarose gel preparation incorporating sheep red blood cells (SRBCs) (Thermo Fisher Scientific) was used covered by a thin tissue of pig intestine to simulate the effect of the human skin barrier.
A solution of 4% low melting point agarose (INVITROGEN ™ LMP Agarose) in phosphate buffered saline (PBS) (SIGMA) was prepared and cooled to room temperature for a few minutes. The SRBCs were centrifuged and resuspended in PBS until a final concentration of 2% was obtained. Equal volumes of both preparations were mixed and poured onto a glass surface with a mold (18x7.5 cm) and allowed to cool to room temperature. Once the agarose with SRBCs was set, rectangles were cut and placed on slides and kept at 4 °C in a humidification chamber (maximum 72 hours until use).
Pig small intestine tissue was washed in a 50 mM saline solution and then cut in rectangular sections. […] The next day, the sections were stretched on a glass surface and allowed to dry for a few minutes in the open air. The pretreated sections of the pig small intestine were placed on the SRBC agarose rectangles
Cutting tentacles of the same size is a complicated process due to the contraction and expansion of the tentacles after their manipulation. In order to control the sting area, we design plastic molds obtained through a 3D printer.
Tentacle pieces of approximately 3 cm long were incubated on reductor or inhibitory solutions (Method 3) for 5 minutes. Consecutively, the agarose rectangles were stung by a sting diameter of 57,35 mm^2 for 1 minute. A weight of 0,66 g was applied to ensure the contact between the tentacle and the skin. After the sting process, the plastic molds and the intestine sections were removed and the SRBC's agarose rectangles were stored in the humidification chamber at room temperature. After a period of 22 hours, images of the hemolytic areas were obtained with a camera. Hemolytic areas were calculated using the Fiji version of ImageJ software (J. Schindelin et al., Fiji: an open-source platform for biological-image analysis. Nature methods, 2012, vol. 9, pp. 676-682). Table 2. Inhibitory efficacy on the venom load to P. noctiluca.

`O=C(CO)c1ccccc1` [HAP, hydroxy acetophenone]: the discharge of nematocysts result is given as “significantly reduces”.
In the case of `CC(O)CCO` (stereo not shown) [100% Butylene glycol, Butylene glycol], the “Venom load - Hemolytic area (%)” value (tentacles incubated 5 minutes in solution, sting 1 minute on SRBC agarose covered with pig intestine, read after 22 hours) came to 26.54 ± 19.66%. Moreover, the “% Inhibitory” value ({}) was found to be 56.33%.
Turning to `CC(C)(C)C1CCC(O)CC1` (stereo not shown) [4-tert-butyl cyclohexanol], the discharge of nematocysts result is “significantly reduces”.
